Patent US12552738B2, “Crystal forms of amino lipids” (ModernaTX, Inc., priority 2017, dated 2026)
“Also recorded” adds a separate entry of the source. Each block holds one molecule with its values, some of them ahead of it.

Legend:
Type in all cases: physicochemical
[1] = Dynamic vapor sorption (DVS) isotherm, hygroscopicity; conditions: for water uptake, adsorption isotherm / water uptake, desorption isotherm: 80% relative humidity, 25° C.; for Hygroscopicity/purity decrease: MC3 and MC3 trimesate, water uptake up to 80% RH at 25° C.; for Hygroscopicity / form change after DVS: salts or cocrystals of Compound 1; for Hygroscopicity: DVS isotherm at 25° C.; for form change after DVS: XRPD before and after DVS test at 25° C.
Method: DVS was measured on via a SMS (Surface Measurement Systems) DVS Intrinsic. The relative humidity at 25° C. were calibrated against deliquescence point of LiCl, Mg(NO3)2 and KCl.

[2] = free base pKa
[3] = HPLC purity before and after the DVS experiment; conditions: samples prepared with crude and purified free base
Method: Trimesate Type A samples were prepared according to the procedure described in the foregoing, using the crude free base (HPLC purity of 88.5 area %) or purified free base (HPLC purity of 97.6 area %) as starting material, and analyzed by HPLC.

[4] = listed as 4-hydroxybenzoate Polymorph A
[5] = listed as trimellitate Polymorph A

water uptake, adsorption isotherm ([1]; listed as crude free base): 0.24%
water uptake, adsorption isotherm ([1]; listed as pure free base): 0.14%
water uptake, desorption isotherm ([1]; listed as crude free base): 0.27%
water uptake, desorption isotherm ([1]; listed as pure free base): 0.17%
Hygroscopicity/purity decrease ([1]; listed as crude free base): slightly hygroscopic
pKa [2]: > 8
Molecule: CCCCC/C=C\C/C=C\CCCCCCCCC(CCCCCCCC/C=C\C/C=C\CCCCC)OC(=O)CCCN(C)C [MC3, (6Z,9Z,28Z,31Z)-heptatriaconta-6,9,28,31-tetraen-19-yl 4-(dimethylamino)butanoate, reference compound]

Molecule: (6Z,9Z,28Z,31Z)-heptatriaconta-6,9,28,31-tetraen-19-yl 4-(dimethylamino)butanoate trimesate [Trimesate Type A]
Hygroscopicity/purity decrease [1]: Non-hygroscopic
Hygroscopicity/purity decrease ([1]; listed as trimesate Type A): non-hygroscopic (Hygroscopicity concluded using the water uptake up to 80% RH at 25° C.: < 0.2% for non-hygroscopic)
Hygroscopicity/purity decrease ([1]; listed as trimesate of MC3): non-hygroscopic (Hygroscopicity concluded using the water uptake up to 80% RH at 25° C.: < 0.2% for non-hygroscopic)
HPLC purity change after the DVS experiment [3]: No significant HPLC purity change

Molecule: heptadecan-9-yl 8-((2-hydroxyethyl)amino)octanoate 4-hydroxybenzoate [4-Hydroxybenzoate Polymorph A]
Hygroscopicity [1]: Non-hygroscopic
Hygroscopicity [1, 4]: non-hygroscopic
Hygroscopicity ([1]; listed as 4-hydroxybenzoate of Compound 1): non-hygroscopic
Hygroscopicity ([1]; listed as Polymorph A of 4-hydroxybenzoate of Compound 1): low hygroscopicity
form change after DVS [1]: (no)
form change after DVS [1, 4]: no form change

Molecule: heptadecan-9-yl 8-((2-hydroxyethyl)amino)octanoate orotate [Orotate Polymorph B]
Hygroscopicity [1]: slightly hygroscopic; also recorded: Hygroscopic

Molecule: heptadecan-9-yl 8-((2-hydroxyethyl)amino)octanoate trimellitate [Trimellitate Polymorph A]
Hygroscopicity [1]: Slightly hygroscopic
Hygroscopicity [1, 5]: slightly hygroscopic
form change after DVS [1]: (no)
form change after DVS [1, 5]: no form change
